The values that follow come from PMC6338774 (Scientific Reports, 2019).

The test system of data set [1] is human promyelocytic leukemia HL-60 cells. Put plainly: WST-1 cell proliferation assay, HL-60 cells. Type of data set: cell-based. The note with it: WST-1, 72 h; for IC50: concentrations 50-200 µM, mean ± SD, na = not active in range tested. On the procedure:
(§1) Human promyelocytic leukemia HL-60 cells and human colon cancer cell line Caco-2 were obtained from the American Type Culture Collection (Manassas, VA, USA). […] (Institute of Biotechnology, Faculty of Environment and Natural Sciences, Brandenburg University of Technology Cottbus-Senftenberg, Senftenberg, Germany)[34] were cultured in DMEM medium supplemented with 10% fetal bovine serum (FBS, Invitrogen, Carlsbad, USA), 2 mM glutamine and antibiotics (complete DMEM). Cells (4 × 10^3/well) were grown for 24 h in 96-well plates (Sarstedt, Germany) in appropriate complete medium at 37 °C and atmosphere containing 5% CO2. […] After indicated periods of time, WST-1 mixture was added to each well, and the cells were cultured for additional 6 h. The absorbance at 450 nm was measured on an EnSpire 2300 Multilabel Reader (Perkin-Elmer, USA), and data were analyzed using the program EnSpire 9.0 (Perkin-Elmer, USA). The experiments were performed in triplicates and repeated at least three times independently.
On the technique in general: Tetrazolium assays rely on reduction of a dye to a coloured formazan, in cell work by metabolically active cells.

Data set [2] concerns human colon carcinoma Caco-2 cells. Put plainly: WST-1 cell proliferation assay, Caco-2 cells. Type of data set: cell-based. The note with it: WST-1, 72 h; for IC50: concentrations 50-200 µM, mean ± SD, na = not active in range tested. As to the method: as §1
The subject of data set [3] is porcine epithelial intestinal IPEC-J2 cells. Briefly: WST-1 cell proliferation assay, IPEC-J2 cells. In kind it is cell-based. The conditions noted are these: Sus scrofa, WST-1, 72 h, concentrations 50-200 µM, mean ± SD, na = not active in range tested. On the procedure:
as §1, with “independently. Results were presented as mean IC50 (concentration of the tested compound, that inhibits cell proliferation by 50%) ± standard deviation.” for “independently.”

Another data set is described as follows: Solubility in DMSO. The conditions noted are these: the reason cytotoxicity was not tested. Type of data set: physicochemical.

Some results are limits rather than exact numbers.

For the compound `CCCCCCCCCCCCCCCC(=O)O[C@H](COC(=O)C(C)c1ccc(CC(C)C)cc1)COP(=O)([O-])OCC[N+](C)(C)C` (mixture of isomers) [Compound 9, 1-[2′-(4″-Isobutylphenyl)]propanoyl-2-palmitoyl-sn-glycero-3-phosphocholine], the IC50 (as a rule, the concentration that gives 50% inhibition) in data set [1] stood at 67.1 ± 10.9 µM; in data set [2], 125 ± 3.87 µM.
For the compound `CCCCCCCCCCCCCCCC(=O)O[C@H](COC(=O)C(C)c1ccc2cc(OC)ccc2c1)COP(=O)([O-])OCC[N+](C)(C)C` (mixture of isomers) [Compound 10, 1-[2′-(6″-Methoxynaphthalenyl)]propanoyl-2-palmitoyl-sn-glycero-3-phosphocholine], inhibition in data set [1] was half-maximal at 27.1 ± 5.13 µM (IC50). Moreover, the “concentration up to which non-toxic, Caco-2 cells” value in data set [2] is listed as no more than 200 µM.
`CCCCCCCCCCCCCCCC(=O)OC[C@H](COP(=O)([O-])OCC[N+](C)(C)C)OC(=O)C(C)c1ccc(CC(C)C)cc1` (mixture of isomers) [Compound 12, 1-Palmitoyl-2-[2′-[4″-isobutylphenyl)]propanoyl-sn-glycero-3-phosphocholine]: the IC50 in data set [1] (Homo sapiens, HL-60) was found to be 77.4 ± 18.2 µM; in data set [2] (Homo sapiens, Caco-2), 135 ± 18.2 µM; in data set [3], 79.2 ± 7.86 µM.
Taken in the same sequence, the figures for `CC(C)Cc1ccc(C(C)C(=O)OC[C@H](COP(=O)([O-])OCC[N+](C)(C)C)OC(=O)C(C)c2ccc(CC(C)C)cc2)cc1` (mixture of isomers) [Compound 15, 1,2-Di-[2′-(4″-isobutylphenyl)]propanoyl-sn-glycero-3-phosphocholine] were 64.5 ± 10.4 µM, 81.3 ± 17.3 µM and 83.4 ± 1.51 µM.
For the compound `COc1ccc2cc(C(C)C(=O)OC[C@H](COP(=O)([O-])OCC[N+](C)(C)C)OC(=O)C(C)c3ccc4cc(OC)ccc4c3)ccc2c1` (mixture of isomers) [Compound 16, 1,2-Di-[2′-(6″-methoxynaphthalenyl)]propanoyl-sn-glycero-3-phosphocholine], the half-inhibitory concentration (IC50) in data set [1] (Homo sapiens, HL-60) was 80.1 ± 10.9 µM; in data set [2] (Homo sapiens, Caco-2), 68.7 ± 18.4 µM; in data set [3], 58.4 ± 5.67 µM.
Consider `CC(C)Cc1ccc(C(C)C(=O)O)cc1` (centres unmarked) [Compound 1, ibuprofen, reference compound], for which the IC50 in data set [1] (Homo sapiens, HL-60) is 106 ± 17.4 µM; in data set [2] (Homo sapiens, Caco-2), 114 ± 10.4 µM; in data set [3] it was 155 ± 7.57 µM. For the same compound, in data set [1], the “concentration up to which non-toxic, HL-60 cells” value was no more than 100 µM.
`COc1ccc2cc([C@H](C)C(=O)O)ccc2c1` [Compound 2, naproxen, reference compound]: the half-maximal inhibitory concentration (IC50) in data set [1] (Homo sapiens, HL-60) came out at 141 ± 8.51 µM; in data set [3] it was 78.6 ± 15.9 µM.
For `CC(C)Cc1ccc([C@H](C)C(=O)OC[C@@H](O)COP(=O)([O-])OCC[N+](C)(C)C)cc1` [Compound 7, 1-[2′S-(4″-Isobutylphenyl)]propanoyl-2-hydroxy-sn-glycero-3-phosphocholine], the “concentration up to which non-toxic, HL-60 cells” value in data set [1] turned out to be 200 µM. This compound also came in with an IC50 in data set [2] of 122 ± 2.76 µM.
In data set [2], `COc1ccc2cc([C@H](C)C(=O)OC[C@@H](O)COP(=O)([O-])OCC[N+](C)(C)C)ccc2c1` [Compound 8, 1-[2′S-(6″-Methoxynaphthalenyl)]propanoyl-2-hydroxy-sn-glycero-3-phosphocholine] registered a half-maximal inhibitory concentration (IC50) of 115 ± 26.1 µM.
Take `CCCCCCCCCCCCCCCC(=O)OC[C@H](COP(=O)([O-])OCC[N+](C)(C)C)OC(=O)C(C)c1ccc2cc(OC)ccc2c1` (stereo partly drawn) [Compound 13, 1-Palmitoyl-2-[2′S-(6″-methoxynaphthalenyl)]propanoyl-sn-glycero-3-phosphocholine]: in the data set “Solubility in DMSO”, the “solubility in DMSO” value was “poor solubility”.
